ChEMBL document CHEMBL1144131, “The taxane diterpenoids” (J Nat Prod, 1999)
≈ marks a conversion by molar mass, not a printed value.

Tested on: P388
Experiment: Cytotoxicity against mouse P388 cells
Type: functional, cell-based

| SMILES | IC50 [µg/mL] |
| --- | --- |
| CC(=O)O[C@@H]1C2=C(C)C(=O)C[C@@](O)([C@@H](OC(=O)c3ccccc3)[C@@H]3[C@]4(OC(C)=O)CO[C@@H]4C[C@H](O)[C@@]3(C)[C@H]1O)C2(C)C | 21 (≈ 35.8 µM) |
| CC(=O)O[C@H]1C[C@H]2OC[C@@]2(OC(C)=O)[C@H]2[C@H](OC(=O)c3ccccc3)[C@]3(C(C)(C)O)C[C@H](O)C(C)=C3[C@@H](O)[C@H](O)[C@]12C | 44 (≈ 74.7 µM) |
| C=C1[C@@H](OC(=O)/C=C/c2ccccc2)C[C@H](OC(C)=O)[C@@]2(C)[C@@H](OC(C)=O)[C@H](OC(C)=O)C3=C(C)[C@@H](OC(C)=O)C[C@@H]([C@@H](O)[C@H]12)C3(C)C | 3.9 (≈ 5.85 µM) |
